Data from patent publication US20080182822A1, “Liquid Pharmaceutical Compositions Comprising a Bisphosphonate Compound” (Besins Healthcare SA, priority 2006, published 2008).
Values joined by “and” are separate entries in the source; they are usually repeats but may differ in a detail not shown here. Equal values may be shown once. Read-outs that look alike come from different tables or passages of the source.

Settings: rat; for Faeces Excretion, Amount Excreted (% of Dose), 8 hours / Urinary Excretion, Amount Excreted (% of Dose), 8 hours: collection 0-8 hours; for Faeces Excretion, Amount Excreted (% of Dose), 72 hours / Urinary Excretion, Amount Excreted (% of Dose), 72 hours: collection 48-72 hours; for Faeces Excretion, Amount Excreted (% of Dose), 96 hours / Urinary Excretion, Amount Excreted (% of Dose), 96 hours: collection 72-96 hours; for Faeces Excretion, Amount Excreted (% of Dose), 120 hours / Urinary Excretion, Amount Excreted (% of Dose), 120 hours: collection 96-120 hours; for Faeces Excretion, Amount Excreted (% of Dose), 144 hours / Urinary Excretion, Amount Excreted (% of Dose), 144 hours: collection 120-144 hours; for Faeces Excretion, Amount Excreted (% of Dose), 168 hours / Urinary Excretion, Amount Excreted (% of Dose), 168 hours: collection 144-168 hours; for Recovery from Treated Skin, % of Dose: dermal (Group 2)
[1] = dermal 1.9 mg (Group 2), individual animals
[2] = dermal 1.9 mg (Group 2), collection 8-24 hours, individual animals
[3] = dermal 1.9 mg (Group 2), collection 24-48 hours, individual animals
[4] = dermal 1.9 mg (Group 2), necropsy Day 4, Mean
[5] = dermal 1.9 mg (Group 2), necropsy Day 4, individual animals
[6] = dermal 1.9 mg (Group 2), necropsy Day 8, Mean
[7] = dermal 1.9 mg (Group 2), necropsy Day 8, individual animals

Q: With `NCCCC(O)(P(=O)(O)O)P(=O)(O)O` [14C-alendronate] as the molecule, how does the “Faeces Excretion, Total Excretion (% of Dose), 0-168 hours” value (dermal 1.9 mg (Group 2), Mean) read?
A: approximately 2 % of Dose

Q: What about the “Urinary Excretion, Total Excretion (% of Dose), 0-72 hours” value (dermal 1.9 mg (Group 2), Mean) of the same molecule?
A: 0.40% of Dose

Q: And the “Faeces Excretion, Amount Excreted (% of Dose), 8 hours” value (dermal 1.9 mg (Group 2), Mean)?
A: 0.004% of Dose

Q: And the “Urinary Excretion, Amount Excreted (% of Dose), 8 hours” value (dermal 1.9 mg (Group 2), Mean)?
A: 0.17% of Dose

Q: What about the “Faeces Excretion, Amount Excreted (% of Dose), 8 hours” value [1] of the same molecule?
A: 0.004% of Dose (2×) and 0.000% of Dose (2×) and 0.001% of Dose (2×) and 0.014% of Dose and 0.003% of Dose

Q: What about the “Urinary Excretion, Amount Excreted (% of Dose), 8 hours” value [1] of the same molecule?
A: 0.15% of Dose and 0.02% of Dose and 0.05% of Dose and 0.08% of Dose (2×) and 0.22% of Dose and 0.14% of Dose and 0.09% of Dose and 0.83% of Dose and 0.07% of Dose

Q: And the “Urinary Excretion, Amount Excreted (% of Dose), 24 hours” value (dermal 1.9 mg (Group 2), collection 8-24 hours, Mean)?
A: 0.12% of Dose

Q: And the “Faeces Excretion, Amount Excreted (% of Dose), 24 hours” value [2]?
A: 0.047% of Dose and 0.001% of Dose and 0.066% of Dose

Q: What about the “Urinary Excretion, Amount Excreted (% of Dose), 24 hours” value [2] of the same molecule?
A: 0.07% of Dose (3×) and 0.06% of Dose (2×) and 0.05% of Dose and 0.27% of Dose and 0.33% of Dose and 0.16% of Dose and 0.11% of Dose

Q: And the “Urinary Excretion, Amount Excreted (% of Dose), 48 hours” value (dermal 1.9 mg (Group 2), collection 24-48 hours, Mean)?
A: 0.06% of Dose

Q: And the “Faeces Excretion, Amount Excreted (% of Dose), 48 hours” value [3]?
A: 0.68% of Dose and 0.30% of Dose and 0.58% of Dose and 0.60% of Dose and 0.53% of Dose and 0.52% of Dose

Q: What about the “Urinary Excretion, Amount Excreted (% of Dose), 48 hours” value [3] of the same molecule?
A: 0.06% of Dose (5×) and 0.02% of Dose (2×) and 0.14% of Dose and 0.12% of Dose and 0.03% of Dose

Q: What about the “Faeces Excretion, Amount Excreted (% of Dose), 72 hours” value (dermal 1.9 mg (Group 2), Mean) of the same molecule?
A: 0.16% of Dose

Q: And the “Urinary Excretion, Amount Excreted (% of Dose), 72 hours” value (dermal 1.9 mg (Group 2), Mean)?
A: 0.04% of Dose

Q: And the “Faeces Excretion, Amount Excreted (% of Dose), 72 hours” value [1]?
A: 0.33% of Dose and 0.19% of Dose and 0.15% of Dose and 0.10% of Dose and 0.46% of Dose and 0.17% of Dose and 0.05% of Dose and 0.02% of Dose (2×)

Q: What about the “Urinary Excretion, Amount Excreted (% of Dose), 72 hours” value [1] of the same molecule?
A: 0.06% of Dose (2×) and 0.02% of Dose (3×) and 0.03% of Dose (2×) and 0.01% of Dose (2×) and 0.13% of Dose

Q: What about the “Faeces Excretion, Amount Excreted (% of Dose), 96 hours” value (dermal 1.9 mg (Group 2), Mean) of the same molecule?
A: 0.10% of Dose

Q: And the “Urinary Excretion, Amount Excreted (% of Dose), 96 hours” value (dermal 1.9 mg (Group 2), Mean)?
A: 0.03% of Dose

Q: And the “Faeces Excretion, Amount Excreted (% of Dose), 96 hours” value [1]?
A: 0.13% of Dose and 0.05% of Dose (2×) and 0.09% of Dose and 0.18% of Dose

Q: And the “Urinary Excretion, Amount Excreted (% of Dose), 96 hours” value [1]?
A: 0.05% of Dose and 0.03% of Dose (2×) and 0.02% of Dose and 0.01% of Dose

Q: What about the “Faeces Excretion, Amount Excreted (% of Dose), 120 hours” value (dermal 1.9 mg (Group 2), Mean) of the same molecule?
A: 0.07% of Dose

Q: What about the “Urinary Excretion, Amount Excreted (% of Dose), 120 hours” value (dermal 1.9 mg (Group 2), Mean) of the same molecule?
A: 0.02% of Dose

Q: What about the “Faeces Excretion, Amount Excreted (% of Dose), 120 hours” value [1] of the same molecule?
A: 0.13% of Dose and 0.05% of Dose (2×) and 0.02% of Dose and 0.10% of Dose

Q: What about the “Urinary Excretion, Amount Excreted (% of Dose), 120 hours” value [1] of the same molecule?
A: 0.06% of Dose and 0.02% of Dose (2×) and 0.01% of Dose (2×)

Q: What about the “Faeces Excretion, Amount Excreted (% of Dose), 144 hours” value (dermal 1.9 mg (Group 2), Mean) of the same molecule?
A: 0.05% of Dose

Q: And the “Urinary Excretion, Amount Excreted (% of Dose), 144 hours” value (dermal 1.9 mg (Group 2), Mean)?
A: 0.01% of Dose

Q: And the “Faeces Excretion, Amount Excreted (% of Dose), 144 hours” value [1]?
A: 0.07% of Dose and 0.04% of Dose (2×) and 0.03% of Dose and 0.09% of Dose

Q: What about the “Urinary Excretion, Amount Excreted (% of Dose), 144 hours” value [1] of the same molecule?
A: 0.02% of Dose and 0.01% of Dose (4×)

Q: What about the “Faeces Excretion, Amount Excreted (% of Dose), 168 hours” value (dermal 1.9 mg (Group 2), Mean) of the same molecule?
A: 0.00% of Dose

Q: What about the “Urinary Excretion, Amount Excreted (% of Dose), 168 hours” value (dermal 1.9 mg (Group 2), Mean) of the same molecule?
A: 0.00% of Dose

Q: And the “Faeces Excretion, Amount Excreted (% of Dose), 168 hours” value [1]?
A: 0.01% of Dose (3×) and 0.00% of Dose (2×)

Q: And the “Urinary Excretion, Amount Excreted (% of Dose), 168 hours” value [1]?
A: 0.01% of Dose and 0.00% of Dose (4×)

Q: What about the “Faeces Excretion, Total Excretion (% of Dose), 0-72 hours” value [1] of the same molecule?
A: 0.53% of Dose and 0.88% of Dose and 0.59% of Dose

Q: And the “Faeces Excretion, Total Excretion (% of Dose), 0-168 hours” value [1]?
A: 0.66% of Dose

Q: What about the “Urinary Excretion, Total Excretion (% of Dose), 0-72 hours” value [1] of the same molecule?
A: 0.34% of Dose and 0.16% of Dose and 0.20% of Dose and 0.17% of Dose and 0.57% of Dose and 0.74% of Dose and 0.21% of Dose and 0.23% of Dose and 0.22% of Dose

Q: What about the “Concentration in bone, Femur” value [4] of the same molecule?
A: 0.060 μg 14C-alendronate/g bone

Q: What about the “Concentration in bone, Tibia” value [4] of the same molecule?
A: 0.039 μg 14C-alendronate/g bone

Q: What about the “Concentration in bone, Femur” value [5] of the same molecule?
A: 0.222 μg 14C-alendronate/g bone and 0.018 μg 14C-alendronate/g bone (2×) and 0.015 μg 14C-alendronate/g bone and 0.026 μg 14C-alendronate/g bone

Q: And the “Concentration in bone, Tibia” value [5]?
A: 0.130 μg 14C-alendronate/g bone and 0.039 μg 14C-alendronate/g bone and 0.016 μg 14C-alendronate/g bone and 0.002 μg 14C-alendronate/g bone and 0.011 μg 14C-alendronate/g bone

Q: What about the “Concentration in bone, Femur” value [6] of the same molecule?
A: 0.029 μg 14C-alendronate/g bone

Q: And the “Concentration in bone, Tibia” value [6]?
A: 0.017 μg 14C-alendronate/g bone

Q: And the “Concentration in bone, Femur” value [7]?
A: 0.022 μg 14C-alendronate/g bone and 0.016 μg 14C-alendronate/g bone and 0.011 μg 14C-alendronate/g bone and 0.069 μg 14C-alendronate/g bone

Q: What about the “Concentration in bone, Tibia” value [7] of the same molecule?
A: 0.012 μg 14C-alendronate/g bone and 0.007 μg 14C-alendronate/g bone and 0.031 μg 14C-alendronate/g bone

Q: And the “Recovery from Treated Skin, % of Dose” value (necropsy Day 4, Mean)?
A: 0.35%

Q: What about the “Recovery from Treated Skin, % of Dose” value (necropsy Day 4, individual animals) of the same molecule?
A: 0.35% (2×) and 0.30% and 0.44% and 0.33%

Q: And the “Recovery from Treated Skin, % of Dose” value (necropsy Day 8, Mean)?
A: 0.28%
